Like-named read-outs stand apart in the source and are kept apart here.
Legend:
[1] = biological target: PIM2 (Homo sapiens (Human), UniProt Q9P1W9); assay: Pim kinase binding activity, Caliper LC3000 microfluidic peptide phosphorylation assay, PIM2; type: biochemical; conditions: 10 μM ATP, 90 min, room temperature; read-out: PIM2 LC3K (KI)
Procedure, shortened: (§1)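 Pim-specific fluorescent peptide phosphorylated in 10 mM HEPES pH 7.2, 10 mM MgCl2, 0.01% Tween 20, 2 mM DTT for 90 min at room temperature, then stopped with EDTA. Product and substrate separated by microfluidic mobility shift; Ki derived from substrate conversion.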

[2] = biological target: PIM3 (Homo sapiens (Human), UniProt Q86V86); assay: Pim kinase binding activity, Caliper LC3000 microfluidic peptide phosphorylation assay, PIM3; type: biochemical; conditions: 10 μM ATP, 90 min, room temperature; read-out: PIM3 LC3K (KI)
Procedure, shortened: as §1

[3] = system: MM1.S (multiple myeloma) cells; assay: In vitro cell proliferation potency assay (Cell Titer Glo), MM1.S cells; type: cell-based; conditions: Homo sapiens, read-out: Prolif MM1S ATP (EC50)
Procedure: BaF3 parental line was obtained from the DSMZ repository. BaF3 lines transfected with PIM1 or PIM2 were generated. Mouse IL-3 was purchased from R&D Systems. G418 was purchased from Clontech. Media for BaF3 parental line contained RPMI, 10% FBS, 2 mM L-Glutamine, 2 ng/mL mIL-3. Media for BaF3 PIM1 & 2 lines contained RPMI, 10% FBS, 2 mM L-Glutamine, […]. Media for MM1.S (multiple myeloma cells) line contained RPMI, 10% FBS, 2 mM L-Glutamine.
BaF3, a murine interleukin-3 dependent pro-B cell line, parental cells, BaF3 PIM1 cells, BaF3 PIM2 cells, and MM1.S (multiple myeloma) cells were seeded at 2 k/well, 5 k/well, 5 k/well, and 10 k/well respectively, in a 384-well plate, at 45 μL/well. Test compound was added at 5 μL/well. BaF3 cells (parental and transfected) were incubated overnight, while MM1.S cells were incubated for 72 hours at 37° C., 5% CO2. CELL TITER GLO® Reagent (Promega) was added at 50 μL/well, the plates were incubated for 30 minutes, and their luminescence read on an HT Analyst. IC50/EC50 values for the test compound were calculated.

[4] = biological target: PIM1 (Homo sapiens (Human), UniProt P11309); assay: biochemical; type: biochemical; conditions: 10 μM ATP, 90 min, room temperature; read-out: PIM1 LC3K (KI)
Procedure, shortened: as §1

[5] = MM1.S, 72 h, MM1.S cells, 72 hours

Sequence of PIM2 (Q9P1W9 whole entry): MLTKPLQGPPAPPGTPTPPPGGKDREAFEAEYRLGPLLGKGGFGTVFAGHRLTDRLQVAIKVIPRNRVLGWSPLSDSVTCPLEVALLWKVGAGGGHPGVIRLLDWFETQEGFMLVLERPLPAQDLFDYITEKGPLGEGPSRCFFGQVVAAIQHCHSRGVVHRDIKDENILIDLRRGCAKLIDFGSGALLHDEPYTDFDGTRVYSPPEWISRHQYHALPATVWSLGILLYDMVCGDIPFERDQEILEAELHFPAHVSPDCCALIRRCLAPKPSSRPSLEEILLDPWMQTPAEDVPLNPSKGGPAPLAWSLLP
Sequence of PIM1 (P11309 whole entry): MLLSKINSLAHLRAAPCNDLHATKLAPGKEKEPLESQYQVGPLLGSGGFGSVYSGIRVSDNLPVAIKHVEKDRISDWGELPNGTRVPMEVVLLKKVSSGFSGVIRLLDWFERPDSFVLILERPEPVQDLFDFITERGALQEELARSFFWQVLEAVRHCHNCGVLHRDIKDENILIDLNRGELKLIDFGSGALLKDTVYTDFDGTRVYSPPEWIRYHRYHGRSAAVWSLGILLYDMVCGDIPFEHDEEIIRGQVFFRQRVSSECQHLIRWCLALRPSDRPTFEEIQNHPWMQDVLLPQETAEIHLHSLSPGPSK

Structure (SMILES) | Ki [1] | Ki [2] | EC50 [3, 5] | Ki [4] | EC50 ([3]; MM1.S cells, 72 hours) | EC50 ([3]; MM1.S, 72 h)
Cc1cncc(-c2cc3c(cn2)cnn3-c2cccc(N3CC[C@@H](N)C3)n2)n1 [Compound 168, (3R)-1-[6-[6-(6-methylpyrazin-2-yl)pyrazolo[4,3-c]pyridin-1-yl]-2-pyridyl]pyrrolidin-3-amine] | 4.74 nM | 0.806 nM | 5000 nM | – | – | –
O[C@H]1CCC[C@@H]1Nc1cncc(-c2cc3c(cn2)cnn3-c2cccc(N3CCNCC3)n2)n1 [Compound 283] | 8.05 nM | 0.182 nM | 8900 nM | – | – | –
CC#Cc1cncc(-c2cc3c(cn2)cnn3-c2cccc(N3CCNCC3)n2)n1 [Compound 317, 1-(6-(piperazin-1-yl)pyridin-2-yl)-6-(6-(prop-1-ynyl)pyrazin-2-yl)-1H-pyrazolo[4,3-c]pyridine] | 1.71 nM | 0.026 nM | 2700 nM | – | – | –
Cc1cncc(-c2cc3c(cn2)cnn3-c2ccc3c(n2)CC(CN)CO3)n1 (stereo not shown) [Compound 292, (6-(6-(6-methylpyrazin-2-yl)-1H-pyrazolo[4,3-c]pyridin-1-yl)-3,4-dihydro-2H-pyrano[3,2-b]pyridin-3-yl)methanamine] | 19.4 nM | 0.796 nM | – | 1.6 nM | 11700 nM | –
OCC(O)c1cncc(-c2cc3c(cn2)cnn3-c2cccc(N3CCNCC3)n2)n1 (stereo not shown) [Compound 277, 1-(6-(1-(6-(piperazin-1-yl)pyridin-2-yl)-1H-pyrazolo[4,3-c]pyridin-6-yl)pyrazin-2-yl)ethane-1,2-diol] | 4.67 nM | – | 4200 nM | – | – | –
NCCOc1cncc(-c2cc3c(cn2)cnn3-c2cccc(N3CCNCC3)n2)n1 [Compound 286, 2-((6-(1-(6-(piperazin-1-yl)pyridin-2-yl)-1H-pyrazolo[4,3-c]pyridin-6-yl)pyrazin-2-yl)oxy)ethanamine] | – | 0.092 nM | 8200 nM | – | – | –
OCC#Cc1cncc(-c2cc3c(cn2)cnn3-c2cccc(N3CCNCC3)n2)n1 [Compound 300, 3-(6-(1-(6-(piperazin-1-yl)pyridin-2-yl)-1H-pyrazolo[4,3-c]pyridin-6-yl)pyrazin-2-yl)prop-2-yn-1-ol] | 0.228 nM | 0.032 nM | 2400 nM | – | – | –
Cn1cc(-c2cc3c(cn2)cnn3-c2cccc(N3CCNC[C@H](O)C3)n2)cn1 [Compound 231, (S)-1-(6-(6-(1-Methyl-1H-pyrazol-4-yl)-1H-pyrazolo[4,3-c]pyridin-1-yl)pyridin-2-yl)-1,4-diazepan-6-ol] | 1.39 nM | 0.032 nM | 2200 nM | 0.078 nM | – | –
Cc1cncc(-c2cc3c(cnn3-c3cccc(N4CCNCC4)n3)nn2)n1 [Compound 313, 6-(6-methylpyrazin-2-yl)-1-(6-(piperazin-1-yl)pyridin-2-yl)-1H-pyrazolo[4,3-c]pyridazine] | 0.71 nM | 0.05 nM | 7100 nM | – | – | –
Cc1cncc(-c2cc3c(cn2)cnn3-c2cccc(N3CC(N)CCC3C)n2)n1 (single isomer, unassigned) [Compound 182, 6-methyl-1-[6-[6-(6-methylpyrazin-2-yl)pyrazolo[4,3-c]pyridin-1-yl]-2-pyridyl]piperidin-3-amine] | – | – | 1900 nM | – | – | –
Cc1cncc(-c2cc3c(cn2)cnn3-c2cccc(N3CCCC4(CN(C=O)C4)C3)n2)n1 [Compound 291, 6-(6-(6-(6-methylpyrazin-2-yl)-1H-pyrazolo[4,3-c]pyridin-1-yl)pyridin-2-yl)-2,6-diazaspiro[3.5]nonane-2-carbaldehyde] | 40.9 nM | 3.42 nM | – | 4.41 nM | – | > 25000 nM
FC1CCNCC1c1cccc(-n2ncc3cnc(-c4cnn(CC(F)(F)F)c4)cc32)n1 (stereo not shown) [Compound 306, 1-(6-(4-fluoropiperidin-3-yl)pyridin-2-yl)-6-(1-(2,2,2-trifluoroethyl)-1H-pyrazol-4-yl)-1H-pyrazolo[4,3-c]pyridine] | – | 0.125 nM | 1700 nM | – | – | –
CCn1cncc(-c2cc3c(cn2)cnn3-c2cccc(N3CCNCC3)n2)c1=O [Compound 151, 3-ethyl-5-[1-(6-piperazin-1-yl-2-pyridyl)pyrazolo[4,3-c]pyridin-6-yl]pyrimidin-4-one] | 3.32 nM | 0.081 nM | 8600 nM | – | – | –
OCCNc1cncc(-c2cc3c(cn2)cnn3-c2cccc(N3CCNCC3)n2)n1 [Compound 282, 2-[[6-[1-(6-piperazin-1-yl-2-pyridyl)pyrazolo[4,3-c]pyridin-6-yl]pyrazin-2-yl]amino]ethanol] | 0.357 nM | 0.021 nM | 9700 nM | – | – | –

More lines, main results first:

Ki [1] | Ki [2] | EC50 [3, 5] | Ki [4] | EC50 ([3]; MM1.S cells, 72 hours) | Structure (SMILES) | EC50 ([3]; MM1.S, 72 h)
1.16 nM | 0.05 nM | 2600 nM | – | – | c1cc(N2CCNCC2)nc(-n2ncc3cnc(-c4cnccn4)cc32)c1 [Compound 144, 1-(6-piperazin-1-yl-2-pyridyl)-6-pyrazin-2-yl-pyrazolo[4,3-c]pyridine] | –
0.44 nM | – | 4600 nM | – | – | Cc1cncc(-c2cc3c(cn2)cnn3-c2cccc(N3CCCNCC3)n2)n1 [Compound 138, 1-[6-(1 4-diazepan-1-yl)-2-pyridyl]-6-(6-methylpyrazin-2-yl)pyrazolo[4,3-c]pyridine] | –
0.664 nM | 0.026 nM | – | 0.023 nM | 2500 nM | Nc1cncc(-c2cc3c(cn2)cnn3-c2cccc(N3CCCNCC3)n2)n1 [Compound 247, 6-(1-(6-(1,4-diazepan-1-yl)pyridin-2-yl)-1H-pyrazolo[4,3-c]pyridin-6-yl)pyrazin-2-amine] | –
0.333 nM | 0.019 nM | – | – | 1900 nM | CCc1cncc(-c2cc3c(cn2)cnn3-c2cccc(N3CCCNCC3)n2)n1 [Compound 150, 1-[6-(1 4-diazepan-1-yl)-2-pyridyl]-6-(6-ethylpyrazin-2-yl)pyrazolo[4 3-c]pyridine] | –
4.59 nM | 0.083 nM | 2700 nM | – | – | CCc1cncc(-c2cc3c(cn2)cnn3-c2cccc(N3CCNC[C@@H](O)C3)n2)c1 (single isomer, unassigned) [Compound 122] | –
1.01 nM | 0.175 nM | 2300 nM | – | – | FC(F)(F)Cn1cc(-c2cc3c(cn2)cnn3-c2cccc(N3CCCNCC3)n2)cn1 [Compound 154, 1-(6-(1,4-Diazepan-1-yl)pyridin-2-yl)-6-(1-(2,2,2-trifluoroethyl)-1H-pyrazol-4-yl)-1H-pyrazolo[4,3-c]pyridine] | –
1.49 nM | 0.109 nM | 3500 nM | – | – | N#CCn1cc(-c2cc3c(cn2)cnn3-c2cccc(N3CCCNCC3)n2)cn1 [Compound 155, 2-(4-(1-(6-(1,4-Diazepan-1-yl)pyridin-2-yl)-1H-pyrazolo[4,3-c]pyridin-6-yl)-1H-pyrazol-1-yl)acetonitrile] | –
3.37 nM | 0.078 nM | 5000 nM | – | – | Cc1cncc(-c2cc3c(cn2)cnn3-c2cccc(N3CCCNCC3)n2)c1 [Compound 141, 1-(6-(1,4-diazepan-1-yl)pyridin-2-yl)-6-(5-methylpyridin-3-yl)-1H-pyrazolo[4,3-c]pyridine] | –
1.37 nM | 0.085 nM | 2500 nM | – | – | FCCn1cc(-c2cc3c(cn2)cnn3-c2cccc(N3CCCNCC3)n2)cn1 [Compound 153, 1-(6-(1,4-Diazepan-1-yl)pyridin-2-yl)-6-(1-(2-fluoroethyl)-1H-pyrazol-4-yl)-1H-pyrazolo[4,3-c]pyridine] | –

— US9434725B2, “5-azaindazole compounds and methods of use” (priority 2012, dated 2016)
